The test system of assay [1] is Two-spotted Mite (2-SM) Tetranychus urticae (Koch). In words: Plant Dip Assay on Two-Spotted Mite, 2-SM PE. The assay is classed as in vivo. Conditions: infested Pinto Bean plants dipped 2-3 seconds, mortality after seven days, adult mites. The source says: The Two-spotted Mite (2-SM) Tetranychus urticae (Koch) is subjected to evaluation tests for miticidal activity. Plant Dip Assay on Two-Spotted Mite [Tetranychus urticae (Koch)] Pinto Bean plants (Phaseolus sp.) approximately 10 cm tall, are transplanted into sandy loam soil in 3 inch clay pots and thoroughly infested with two-spotted mites of mixed ages and sexes. Twenty-four hours later the infested plants are inverted and dipped for 2-3 seconds in 50-50 acetone-water solutions of the test chemicals. Treated plants are held in the greenhouse, and seven days later mortality is determined for both the adult mites and the nymphs hatching from eggs which were on the plants at the time of treatment. Test concentrations range from 0.05% down to that at which 50% mortality occurs. The values obtained in this test are found in Table VII under the Columns 2SM-PE and 2SM-Eggs.

For assay [2], the system named is Desulfovibrio desulfuricans. In words: Sulfate Reducing Bacteria In Vitro Test. Conditions: Sulfate API broth with tryptone, anaerobic, room temperature, 3 to 5 days, read-out: minimum inhibitory concentration necessary to control the organism. The format is cell-based. The procedure: This test measures the bactericidal properties of a compound when in contact with a sulfate reducing bacteria, specifically Desulfovibrio desulfuricans. The test is conducted by dissolving the test compound in acetone to give an 0.5% solution. This toxicant is added to vials containing sterile Sulfate API broth with tryptone under anaerobic conditions at such levels to give final toxicant concentrations of 1, 5, 10 and 50 ug/ml. of solution. An inoculant solution of 0.5 ml. of the growing organism, Desulfovibrio desulfuricans, is added to the vials followed by sufficient sterile distilled water to give a total of 10 ml. of solution in the vials. The vials are incubated at room temperature for 3 to 5 days until untreated controls show growth of the organism as indicated by the black color development in the vials. The following is a summary of the minimum inhibitory concentration necessary to control the organism.

Assay [3] relates to Trichoderma sp. In words: In Vitro Agar Screening Tests (Example 4). The format is cell-based. Conditions: potato dextrose agar, 30° C, partial control at this concentration, read-out: Minimum Inhibitory Concentration. The procedure: (§1) This test measures the bactericidal, fungicidal and algaecidal properties of a compound when in contact with growing bacteria, fungi or algae in an artificial medium. The test is conducted by adding 20 ml. portions of a suitable warm sterile agar solution into 20 × 100 Petri dishes. Then, the text compound, in 0.5% acetone solution, is added to the Petri dishes at levels of 1, 5, 10 and 50 μg/ml. and mixed with the warm mobile agar solution. The treated agar mixture is then allowed to come to room temperature and solidify. Cells of the chosen organism are streaked on the surface of the solidified agar and are then incubated for such lengths of time that untreated samples containing no toxicant show luxurious growth typical of the particular organism. This time varies from 24 hours to one week depending on the particular organism. The fungi are incubated at 30° C and the bacteria are incubated at 37° C. The algae are incubated at room temperature under artificial light. Nutrient agar is used as the medium in this test for the bacteria. Potato dextrose agar is used as the medium for the fungi with the exception of Trichophyton mentagrophytes for which Emmons agar is used. A modified Jack Meyers agar is used for the growth of the algae.
(§2) The extent of growth is noted at the end of the incubation period.

Assay [4] concerns Chlorella pyrenoidosa. In words: In Vitro Agar Screening Tests (Example 4). The assay is classed as cell-based. To be noted: Auxenochlorella pyrenoidosa, modified Jack Meyers agar, room temperature, artificial light, read-out: Minimum Inhibitory Concentration. As to the method: as §1, §2
Assay [5] relates to Escherichia coli. In words: In Vitro Agar Screening Tests (Example 4). Conditions: nutrient agar, 37° C, read-out: Minimum Inhibitory Concentration. The format is cell-based. As to the method:
as §1, §2

The subject of assay [6] is Brevibacterium ammoniagenes. In words: In Vitro Agar Screening Tests (Example 4). The format is cell-based. Conditions: Corynebacterium ammoniagenes, nutrient agar, 37° C, read-out: Minimum Inhibitory Concentration. The procedure: as §1, §2
The subject of assay [7] is Pseudomonas aeruginosa. In words: In Vitro Agar Screening Tests (Example 4). Conditions: nutrient agar, 37° C, read-out: Minimum Inhibitory Concentration. The assay is classed as cell-based. As to the method:
as §1, §2

The subject of assay [8] is Staphylococcus aureus. In words: In Vitro Agar Screening Tests (Example 4). The assay is classed as cell-based. To be noted: nutrient agar, 37° C, read-out: Minimum Inhibitory Concentration. The procedure: as §1, §2
In assay [9] the test system is Scenedesmus obliquus. In words: In Vitro Agar Screening Tests (Example 4). Conditions: Tetradesmus obliquus, modified Jack Meyers agar, room temperature, artificial light, read-out: Minimum Inhibitory Concentration. The assay is classed as cell-based. As to the method: as §1, §2
Assay [10] relates to Pencillium vermiculatum. In words: In Vitro Agar Screening Tests (Example 4). The format is cell-based. Conditions: potato dextrose agar, 30° C, read-out: Minimum Inhibitory Concentration. The procedure: as §1, §2
Assay [11] relates to Aspergillus niger. In words: In Vitro Agar Screening Tests (Example 4). The format is cell-based. To be noted: potato dextrose agar, 30° C, read-out: Minimum Inhibitory Concentration. The procedure: as §1, §2
Assay [12] relates to Penicillium italicum. In words: In Vitro Agar Screening Tests (Example 4). The assay is classed as cell-based. Conditions: potato dextrose agar, 30° C, read-out: Minimum Inhibitory Concentration. As to the method:
as §1, §2

For assay [13], the system named is Pencillium ochra-chloron. In words: In Vitro Agar Screening Tests (Example 4). Conditions: potato dextrose agar, 30° C, partial control at this concentration, read-out: Minimum Inhibitory Concentration. The format is cell-based. As to the method:
as §1, §2

Assay [14] has as its system Pencillium expansum. In words: In Vitro Agar Screening Tests (Example 4). To be noted: potato dextrose agar, 30° C, partial control at this concentration, read-out: Minimum Inhibitory Concentration. The assay is classed as cell-based. As to the method: as §1, §2
Assay [15] has as its system Enterobacter aerogenes. In words: In Vitro Agar Screening Tests (Example 4). The format is cell-based. Conditions: Klebsiella aerogenes, nutrient agar, 37° C, read-out: Minimum Inhibitory Concentration. The procedure: as §1, §2
Assay [16] has as its system Trichophyton mentagrophytes. In words: In Vitro Agar Screening Tests (Example 4). The format is cell-based. To be noted: Emmons agar, 30° C, partial control at this concentration, read-out: Minimum Inhibitory Concentration. The procedure:
as §1, §2

Assay [17] has as its system Rhizopus stolonifer. In words: In Vitro Agar Screening Tests (Example 4). The assay is classed as cell-based. To be noted: potato dextrose agar, 30° C, partial control at this concentration, read-out: Minimum Inhibitory Concentration. As to the method:
as §1, §2

Assay [18] relates to Euglena gracilis. In words: In Vitro Agar Screening Tests (Example 4). The assay is classed as cell-based. Conditions: modified Jack Meyers agar, room temperature, artificial light, read-out: Minimum Inhibitory Concentration. The procedure:
as §1, §2

The subject of assay [19] is Pseudomonas fluorescens. In words: In Vitro Agar Screening Tests (Example 4). The assay is classed as cell-based. To be noted: nutrient agar, 37° C, read-out: Minimum Inhibitory Concentration. The procedure:
as §1, §2

For assay [20], the system named is Aspergillus fumigatus. In words: In Vitro Agar Screening Tests (Example 4). The assay is classed as cell-based. Conditions: potato dextrose agar, 30° C, read-out: Minimum Inhibitory Concentration. The procedure:
as §1, §2

The subject of assay [21] is Bacillus cereus. In words: In Vitro Agar Screening Tests (Example 4). The assay is classed as cell-based. Conditions: nutrient agar, 37° C, read-out: Minimum Inhibitory Concentration. As to the method:
as §1, §2

Assay [22] concerns Aspergillus oryzae. In words: In Vitro Agar Screening Tests (Example 4). The assay is classed as cell-based. Conditions: potato dextrose agar, 30° C, partial control at this concentration, read-out: Minimum Inhibitory Concentration. The procedure:
as §1, §2

In assay [23] the test system is Staphylococcus aureus. In words: Staphylococcus Aureus Use Dilution Test. The assay is classed as cell-based. Conditions: Tryptic Soy Broth, 24 hours, 37° C, read-out: Minimum Inhibitory Concentration. The procedure: This test measures the bacteriostatic effectiveness of a particular test compound against Staphylococcus aureus. Tryptic Soy Broth is dispensed aseptically into sterile 13 × 100 mm. clear glass culture tubes. The first tube receives 3.6 ml. of medium and tubes 2 through 10 receive 2.0 ml. of medium. The test compound is dissolved in acetone to give 10 ml. of a solution of 0.10% of the test compound. Using a sterile syringe, 0.4 ml. of the test compound solution is placed in the first tube containing the 3.6 ml. of sterile broth and mixed thoroughly. This operation is continued through to the tenth tube. From the tenth tube, 2.0 ml. of solution is removed and discarded. Each tube is then innoculated with 0.1 ml. of a 24 hour culture of Staphylococcus aureus in Tryptic Soy Broth, and the mixture is mixed thoroughly using a Vortex mixer. A control is also set up to be sure that the inoculum is viable using a tube of sterile broth containing no added toxicant. The tubes are incubated for 24 hours at 37° C. The tubes are then examined to determine growth of the organism in the culture tubes. The minimum concentration in which no growth of the organism occurs is recorded. The following table gives the minimum inhibitory concentration necessary to control the organism: […]

For assay [24], the system named is Phoma herbarum. In words: Biocide Testing Procedure (malt extract broth). The format is cell-based. Conditions: 168 h, one week, read-out: lowest concentration which provides 50% inhibition of growth. As to the method:
Biocide Testing Procedure Tubes of sterilized nutrient and malt extract broth are prepared. Aliquots of the toxicant, dissolved in an appropriate solvent, are injected through the stopper, into the broth, to provide concentrations ranging from 50 ppm downward. The test organism is a fungus, Phoma herbarum. Three drops of a spore suspension of the fungus are injected into the tubes of malt broth. One week later the growth of the organism is observed and effectiveness of the chemical is recorded as the lowest concentration in ppm which provides 50% inhibition of growth as compared to untreated inoculated tube.

Converted amounts (≈) assume the structure as drawn.

In the case of `CCOCCOC(=S)SCSC#N` [Compound 1], the “2-SM PE: concentration at which 50% mortality occurs” value in [1] is “.03%”. Moreover, the MIC was 10 µg/mL (≈ 42.1 µM) in [2]; 10 µg/mL (≈ 42.1 µM) in assay [3]; 1 µg/mL (≈ 4.21 µM) in assay [4]; 25 µg/mL (≈ 105 µM) in assay [5]; greater than 50 µg/mL in assay [6]; 50 µg/mL (≈ 211 µM) in [7]. In addition, the MIC in [8] was found to be 5 µg/mL (≈ 21.1 µM); in assay [9] it was 10 µg/mL (≈ 42.1 µM); in assay [10] it was 10 µg/mL (≈ 42.1 µM); in assay [11], 1 µg/mL (≈ 4.21 µM); in [12], 1 µg/mL (≈ 4.21 µM); in assay [13], 10 µg/mL (≈ 42.1 µM). The MIC was 5 µg/mL (≈ 21.1 µM) in assay [14]; greater than 50 µg/mL in assay [15]; 10 µg/mL (≈ 42.1 µM) in assay [16]; 1 µg/mL (≈ 4.21 µM) in assay [17]; 1 µg/mL (≈ 4.21 µM) in assay [18]; 50 µg/mL (≈ 211 µM) in assay [19]. The MIC in [20] is 5 µg/mL (≈ 21.1 µM); in assay [21], greater than 50 µg/mL; in [22], 1 µg/mL (≈ 4.21 µM); in assay [23] it was 50 µg/mL (≈ 211 µM). In addition, in [24], the IC50 came to 5 µg/mL (≈ 21.1 µM).

Values taken from patent US4078079A, “Thiocyano-xanthate miticides” (Stauffer Chemical Company, priority 1976, dated 1978).
